Measured values taken from EP1477174B1, “Radioactive arsenic-containing compounds and their uses in the treatment of tumors” (TTY Biopharm Company Limited, priority 2003, dated 2004).
Values joined by “and” are separate entries in the source; they are usually repeats but may differ in a detail not shown here. Equal entries are not always repeated.

Key:
[1] = test system: relapsed acute promyelocytic leukemia; conditions: cited from earlier work
[2] = test system: N1-S1 rat hepatoma cells; assay: Therapeutic effect assessment: liver tumor direct injection, rats with liver tumors; format: in vivo, Spawn-Dawley rats; design: key to Response: Increase in Size of tumor (In%) is classified as "Poor Response"; decrease in size of tumorwithin 0%∼40% is classified as "MildResponse"; decrease in size of tumor to 50% or more or disappearance of tumor is classified as "Good Response."; conditions: for Response / Survival time: 0.45 mg/kg direct into liver tumor, single animals
Protocol: (§1) When cultured to 1.5x10^6 cell/ml, 4x10^6 cell/0.06ml of N1-S1 cells were sampled and then implanted into Spawn-Dawley male rats (5-week-old, 150g) between the liver and liver capsule by surgery, and the wounds were closed by sutures. Rearing of the rats was continued for ten days, and ultrasonic scanning was used to detect any growth of liver tumor and tumor size. After scanning, animals that had developed liver tumors were used to conduct the experiments of tumor growth inhibition, and euthanasia was practiced on the rest of the rats.
The rats with liver tumors were subjected to surgery. After the locations of the liver tumors were found, the tumors were directly injected with normal saline, an injection containing arsenic trioxide without neutron irradiation treatment (concentration: 1 mg/ml; animal injection dosage: 0.45 mg/kg), and the injection prepared in Example 1 which contained radioactive arsenic trioxide having subjected to neutron irradiation treatment (radiation activity range: 2.77-3.25 mCi/ml; concentration: 1 mg/ml of concentration; and animal injection dosage: 0.45 mg/kg), respectively, once every week, twice in total.
(§2) Before injection, the size of the liver tumors was examined by ultrasonic scanning. Ultrasonic scanning was conducted in the first week, the second week, and the fifth week, respectively, after start of the injection to observe the change in size of the tumor. Finally, the rats were sacrificed for observing whether there was metastasis.

[3] = test system: human cervical cancer cells; conditions: in vitro and in vivo, cervical cancer (Yong-Jin Chun et al. 2002); cited from earlier work
[4] = test system: N1-S1 rat hepatoma cells; assay: Therapeutic effect assessment: continuous tail vein injection, rats with liver tumors; format: in vivo, Spawn-Dawley rats; design: key to Response: Increase in size of tumor (In%) is classified as "Poor Response"; decrease in size of tumorwithin 0%∼40% is classified as "MildResponse"; decrease in size of tumor to 50% or more or disappearance of tumor is classified as "Good Response."; conditions: for Response / Survival time: 0.45 mg/kg tail vein, continued for two weeks, single animals; for Effect on the inhibition of tumor growth (in words): continuous tail vein injection; for Survival of the rats (in words): tail vein injection, week 8
Protocol: as §1
The rats with liver tumors were given normal saline, an injection solution containing arsenic trioxide without neutron irradiation treatment (concentration: 1 mg/ml; animal injection dosage: 0.45 mg/kg), and the injection solution prepared in Example 1 which contained radioactive arsenic trioxide having subjected to neutron irradiation treatment(radioactivity range: 2.77-3.25 mCi/ml; concentration: 1 mg/ml; and animal injection dosage: 0.45 mg/kg), respectively, via tail vein injection, and the injection was continued for two weeks.
as §2, with “the injection so as to observe” for “the injection to observe”

[5] = test system: liver tumor; conditions: 2 mg/kg for 10 consecutive days (Lin et al. 1999); cited from earlier work
[6] = test system: N1-S1 rat hepatoma cells; assay: Therapeutic effect assessment: hepatic artery single injection, rats with liver tumors; format: in vivo, Spawn-Dawley rats; conditions: for Therapeutic effect (in words): hepatic artery single injection
Protocol: as §1
The blood vessels of the hepatic artery were dissected from the hepatic tissue of the rats by surgery, and normal saline, an injection solution containing arsenic trioxide without neutron irradiation treatment (concentration: 1 mg/ml; and animal injection dosage: 0.45 mg/kg), and the injection solution prepared in Example 1 which contained radioactive arsenic trioxide having subjected to neutron irradiation treatment (radioactivity range: 2.77-3.25 mCi/ml; concentration: 1 mg/ml; and animal injection dosage: 0.45 mg/kg dose), were injected respectively via the hepatic artery in single injections.
as §2

[7] = Biodistribution test and radiation absorption dose (MIRD method) in rats with liver tumors; format: in vivo; conditions: for Radiation absorption dose, Intestine / Radiation absorption dose, Kidney / Radiation absorption dose, Liver / Radiation absorption dose, Lung / Radiation absorption dose, Muscle / Radiation absorption dose, Spleen / Radiation absorption dose, Tumor: 0.45 mg/kg
Protocol: The hepatic artery was dissected from the hepatic tissue of the rats by surgery. A PE-10 tube was introduced into the hepatic artery, and the test solution containing neutron-irradiated arsenic trioxide as prepared in Example 1 was injected into the hepatic artery. The PE-10 tube was removed after injection, and a surgical thread was used to bind and fix the blood vessels, followed by suturing of the wound.
The test injection solution containing neutron-irradiated arsenic trioxide as prepared in Example 1 was injected into the tail vein using a syringe with needle no. 25.
A fixed amount of radioactive arsenic trioxide (radioactivity range: 2.77-3.25 mCi/ml, concentration: 1 mg/ml, animal injection dose: 0.45 mg/kg) prepared in Example 1 was injected into the rats with liver tumors through the hepatic artery and tail vein, respectively.
The rats were sacrificed by taking a large amount of blood from the heart at hours 2, 4, 16, 24 and 48, respectively, after injection, and the blood, hearts, lungs, livers, spleens, kidneys, intestines, bladders, muscles, and tumors were removed. These tissues or organs were placed in respective tubes, and their irradiation intensity was measured by a gamma counter (Wallac 1470 WIZARD) . The content percentage of arsenic trioxide per each gram of the tissue or organ was calculated using standard curve regression. There were two or three experimented rats in each experimental group.
Radioactive arsenic trioxide was injected respectively into the tail vein and hepatic artery of the rats by I.V. and I.H. The dosage was calculated using MIRD method, and the residence time in each of the organs and the tumors was calculated using Excel software. Finally, the radiation absorption dose in each of the organs or tissues and the tumors was calculated using MIROSE 3 software. Table 3. Radiation absorption dose in each of the organs or tissues and the tumors after injection of radioactive arsenic trioxide into the animals through the tail vein and hepatic artery, respectively, by I.V. and I.H.

[8] = 0.45 mg/kg hepatic artery single injection, single animals

Question: For `S1[As]2S[As]3S[As]2S[As]13` [tetraarsenic tetraslfide], which complete remission rates ([1]; other arsenic-containing substances (Wang Z.Y. 2001)) is on record?
Answer: The complete remission rates was 84.9%.

Question: For arsenic trioxide [reference compound], which Response [2] is on record?
Answer: The Response was “Poor and Good (decrease in size of tumor to 50% or more or disappearance of tumor is classified as "Good Response.") and Mild (decrease in size of tumorwithin 0%∼40% is classified as "MildResponse")”.

Question: What about the “Survival time” value [2] of the same compound?
Answer: The value was greater than 30 days.

Question: What about the “Effect of combined treatment with ionizing radiation (in words)” value [3] of the same compound?
Answer: Its value is “synergistic effect”.

Question: And the Response [4]?
Answer: Its Response is “Poor (3×) and Mild (decrease in size of tumorwithin 0%∼40% is classified as "MildResponse") (2×)”.

Question: And the “Survival time” value [4]?
Answer: Its value is 14 day (2×) and 42 day and 7 day and 40 day.

Question: And the “Effect on the inhibition of tumor growth (in words)” value [4]?
Answer: The value was “not significant”.

Question: And the “Survival of the rats (in words)” value [4]?
Answer: Its value is “still alive in week 8”.

Question: What about the “Effect of combination with other drugs (in words)” value ([1]; combination with other drugs (such as GM-CSF), relapsed or ATRA resistant acute promyelocytic leukemia (Muto A et al. 2001)) of the same compound?
Answer: Its value is “synergistic therapeutic effect”.

Question: What about the “complete remission (CR) rate” value ([1]; intravenously at a dose of 10 mg/d, relapsed acute promyelocytic leukemia (Shen Z.X. et al. 1997)) of the same compound?
Answer: Its value is 90%.

Question: What about the complete remission rate ([1]; low-dose, intravenously, daily dose of 0.08 mg/kg for 28 days (Shen Y et al. 2001)) of the same compound?
Answer: The complete remission rate was 80%.

Question: And the “life of the mice extended to” value [5]?
Answer: The value was 127.2%.

Question: What about the Response [6, 8] of the same compound?
Answer: Its Response is “Mild (decrease in size of tumorwithin 0%∼40% is classified as "MildResponse") (2×) and Poor (2×)”.

Question: And the “Survival time” value [6, 8]?
Answer: Its value is >42 day (2×) and 36 day and 39 day.

Question: And the “Therapeutic effect (in words)” value [6]?
Answer: Its value is “not satisfactory”.

Question: Which results are given for radioactive arsenic trioxide?
Answer: Response [2]: Good (decrease in size of tumor to 50% or more or disappearance of tumor is classified as "Good Response."); Survival time [2]: >30 days; Change of tumor size (in words) ([2]; direct injection into the liver tumors, 4 weeks): the tumors in all of the animals shrank; Response [4]: Good (decrease in size of tumor to 50% or more or disappearance of tumor is classified as "Good Response."); Survival time [4]: >56 days; Effect on the inhibition of tumor growth (in words) [4]: most noticeable; Survival of the rats (in words) [4]: all alive in week 8; Response [6, 8]: Good (decrease in size of tumor to 50% or more or disappearance of tumor is classified as "Good Response."); Survival time [6, 8]: >42 days; Tumor size After injection Week 2 [6, 8]: Disappeared; Tumor size After injection Week 5 [6, 8]: Disappeared; Therapeutic effect (in words) [6]: complete disappearance of the tumors in some of the animals 2 weeks after injection; Radiation absorption dose, Intestine ([7]; IH (hepatic artery)): 0.23 mGy/MBq; Radiation absorption dose, Kidney ([7]; IH (hepatic artery)): 0.28 mGy/MBq; Radiation absorption dose, Liver ([7]; IH (hepatic artery)): 0.21 mGy/MBq; Radiation absorption dose, Lung ([7]; IH (hepatic artery)): 0.56 mGy/MBq; Radiation absorption dose, Muscle ([7]; IH (hepatic artery)): 0.12 mGy/MBq; Radiation absorption dose, Spleen ([7]; IH (hepatic artery)): 0.95 mGy/MBq; Radiation absorption dose, Tumor ([7]; IH (hepatic artery)): 21 mGy/MBq; Radiation absorption dose, Intestine ([7]; IV (tail vein)): 0.16 mGy/MBq; Radiation absorption dose, Kidney ([7]; IV (tail vein)): 0.25 mGy/MBq; Radiation absorption dose, Liver ([7]; IV (tail vein)): 0.13 mGy/MBq; Radiation absorption dose, Lung ([7]; IV (tail vein)): 0.47 mGy/MBq; Radiation absorption dose, Muscle ([7]; IV (tail vein)): 0.06 mGy/MBq; Radiation absorption dose, Spleen ([7]; IV (tail vein)): 0.76 mGy/MBq; Radiation absorption dose, Tumor ([7]; IV (tail vein)): 4.26 mGy/MBq; Contents of the radioactive arsenic trioxide in the heart, the lung, and the spleen ([7]; hepatic artery and tail vein injection, hours 2-48 (Figure 3)): 1-3 % ID/g
